Experimental findings from US20150225369A1, “DDR2 INHIBITORS FOR THE TREATMENT OF OSTEOARTHRITIS” (Merck Patent GmbH, priority 2012, published 2015) are described below.

Usually IC50 stands for the point on the concentration scale where inhibition reaches its midpoint.

For the first test, the target named is T1, HEK293 transfected with human DDR2 (Homo sapiens, UniProt Q16832).
T1 construct: expressed in transfected cells; host or cells: HEK293 (PLT460F_(DDR2)-P7-1)
T1 sequence (Q16832 22-855): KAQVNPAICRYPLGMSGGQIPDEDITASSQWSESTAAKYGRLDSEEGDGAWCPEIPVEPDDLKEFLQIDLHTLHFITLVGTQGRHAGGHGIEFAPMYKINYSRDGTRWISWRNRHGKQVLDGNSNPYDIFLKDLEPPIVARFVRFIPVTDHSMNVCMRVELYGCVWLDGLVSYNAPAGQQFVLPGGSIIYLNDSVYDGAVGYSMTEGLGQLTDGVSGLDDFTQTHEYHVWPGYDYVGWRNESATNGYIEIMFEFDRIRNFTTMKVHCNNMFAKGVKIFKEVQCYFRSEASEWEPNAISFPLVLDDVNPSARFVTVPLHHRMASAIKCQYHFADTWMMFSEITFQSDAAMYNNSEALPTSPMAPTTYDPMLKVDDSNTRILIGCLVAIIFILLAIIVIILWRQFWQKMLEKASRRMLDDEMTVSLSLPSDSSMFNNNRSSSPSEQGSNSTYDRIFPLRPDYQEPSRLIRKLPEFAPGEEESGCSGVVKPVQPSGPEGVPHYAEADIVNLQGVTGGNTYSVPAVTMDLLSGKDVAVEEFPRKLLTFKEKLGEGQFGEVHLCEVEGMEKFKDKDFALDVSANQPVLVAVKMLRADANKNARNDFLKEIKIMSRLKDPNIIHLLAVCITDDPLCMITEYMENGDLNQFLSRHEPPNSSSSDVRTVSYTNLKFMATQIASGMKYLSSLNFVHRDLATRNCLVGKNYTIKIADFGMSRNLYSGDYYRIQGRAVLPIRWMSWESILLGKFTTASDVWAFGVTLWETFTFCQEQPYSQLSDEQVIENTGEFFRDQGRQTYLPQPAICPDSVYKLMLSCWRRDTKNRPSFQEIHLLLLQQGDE
In words: Phospho-DDR2 cellular assay (collagen II induced DDR2 phosphorylation, ELISA). Type of test: cell-based. Conditions: HEK293 transfected with human DDR2, 50 μg/ml chicken collagen II, 16 h; read-out: IC50 [p-DDR2]. How it is done:
Assays were performed in a 384 well plate format, using cell line HEK293 transfected with human DDR2 (PLT460F_(DDR2)-P7-1)
Cells were seeded at a density of 10'000 cells/well in 384well poly-D-lysine coated Black/clear plate (Cellcoat Greiner) and incubated in DMEM medium in the presence of 10% fetal bovine serum at 37° C., 5% CO2 for 48 h. Medium was replaced by serum-free medium and cells were incubated at 37° C., 5% CO2 for 8 h. Compound to be tested in 5% DMSO or 5% DMSO and 50 μg/ml of chicken collagen II were added and cells were incubated at 37° C., 5% CO2 for 16 h
Cells were rinsed with ice-cold PBS, lysed with lysis buffer (M-PER Thermo #78501) for 30 min at room temperature and centrifuged for 1 min at 1000 RPM. In parallel, White High binding 384 well plates (Corning) were coated with mouse anti-human DDR2 capture antibody (R&D Systems kit DuoSet IC Human phospho-DDR2 ELISA), overnight at RT.
An aliquot of cell lysate was transferred to the coated plates and incubated for 2 h at RT. Plates were washed and mouse anti-phospho-tyrosine detection antibody (R&D Systems kit DuoSet IC Human phospho-DDR2 ELISA) conjugated to horse radish peroxidase (HRP) was added for 2 h at RT. Plates were washed and chemiluminescent substrate for HRP (Thermo) was added for 15 min at RT. Luminescence was measured on a luminometer.
A general note: An ELISA detects its analyte on a solid surface through an enzyme-linked reagent.
In the case of `Cn1cc(C(F)(F)F)cc(NC(=O)NCc2ccc(Oc3ccnc4c3CNC(=O)N4)cc2)c1=O` [compound 5], the IC50 came to 5.9 nM.

Staying with this test, now noted: cellular phospho-DDR2; read-out: IC50 [p-DDR2].
Regarding `CNC(=O)Cc1ccc(C(F)(F)F)cc1NC(=O)NCc1ccc(Oc2ccnc(C(=O)NC)c2)c(C)c1` [compound 200, 4-{2-Methyl-4-[3-(2-methylcarbamoylmethyl-5-trifluoromethyl-phenyl)-ureidomethyl]-phenoxy}-pyridine-2-carboxylic acid methylamide], the IC50 stood at 455 nM.

In the case of `CNC(=O)c1cc(Oc2ccc(CNC(=O)Nc3cc(C(F)(F)F)ccc3-n3cncn3)cc2)ccn1` [compound 201, 4-{4-[3-(2-[1,2,4]Triazol-1-yl-5-trifluoromethyl-phenyl)-ureidomethyl]-phenoxy}-pyridine-2-carboxylic acid methylamide], the 50% inhibitory concentration (IC50) worked out at 41 nM.

`CNC(=O)c1cc(Oc2ccc(CNC(=O)Nc3cc(Cl)c(Cl)cc3Cl)cc2)ccn1` [compound 23]: the IC50 was 100 nM.

In the case of `O=C(NCc1ccc(Oc2ccnc(C(=O)O)c2)cc1)Nc1ccc(Cl)c(C(F)(F)F)c1` [compound 99, 4-{4-[3-(4-Chloro-3-trifluoromethyl-phenyl)-ureidomethyl]-phenoxy}-pyridine-2-carboxylic acid], the IC50 is 2850 nM.

As to `CNC(=O)c1cc(Oc2ccc(CNC(=O)Nc3cc(C(F)(F)F)ccc3CN3CCNCC3)cc2)ccn1` [compound 192, 4-{4-[3-(2-Piperazin-1-ylmethyl-5-trifluoromethyl-phenyl)-ureidomethyl]-phenoxy}-pyridine-2-carboxylic acid methylamide], the IC50 was 1150 nM.

Consider `CNC(=O)c1cc(Oc2ccc(CNC(=O)Nc3ccccc3CO)cc2C)ccn1` [compound 198, 4-{4-[3-(2-Hydroxymethyl-phenyl)-ureidomethyl]-2-methyl-phenoxy}-pyridine-2-carboxylic acid methylamide], for which the IC50 amounted to 7500 nM.

In the case of `CNCCNC(=O)c1cc(Oc2ccc(CNC(=O)Nc3ccc(Cl)c(C(F)(F)F)c3)cc2)ccn1` [compound 149, 4-{4-[3-(4-Chloro-3-trifluoromethyl-phenyl)-ureidomethyl]-phenoxy}-pyridine-2-carboxylic acid (2-methylamino-ethyl)-amide], the IC50 came to 925 nM.

As to `CNC(=O)c1cc(Oc2ccc(CNC(=O)Nc3cccc(NS(C)(=O)=O)c3)cc2C)ccn1` [compound 167, 4-{4-[3-(3-Methanesulfonylamino-phenyl)-ureidomethyl]-2-methyl-phenoxy}-pyridine-2-carboxylic acid methylamide], the IC50 was determined as 1500 nM.

`CNC(=O)c1cc(Oc2ccc(C(C)NC(=O)Nc3cc(Cl)c(Cl)cc3Cl)cc2)ccn1` (stereo not shown) [compound 70, 4-(4-{1-[3-(2,4,5-Trichloro-phenyl)-ureido]-ethyl}-phenoxy)-pyridine-2-carboxylic acid methylamide]: the IC50 worked out at 735 nM.

As to `CNC(=O)c1cc(Oc2ccc(CNC(=O)Nc3cccc(S(C)(=O)=O)c3)cc2)ccn1` [compound 135, 4-{4-[3-(3-Methanesulfonyl-phenyl)-ureidomethyl]-phenoxy}-pyridine-2-carboxylic acid methylamide], the IC50 came to 390 nM.

`CNC(=O)c1cc(Oc2ccc(CNC(=O)Nc3cc(C(F)(F)F)ccc3-n3ccnc3)cc2C)ccn1` [compound 240, 4-{4-[3-(2-Imidazol-1-yl-5-trifluoromethyl-phenyl)-ureidomethyl]-2-methyl-phenoxy}-pyridine-2-carboxylic acid methylamide]: the IC50 is 2900 nM.

`CNC(=O)c1cc(Oc2ccc(CNC(=O)Nc3ccc(C)cc3CO)cc2C)ccn1` [compound 196, 4-{4-[3-(2-Hydroxymethyl-4-methyl-phenyl)-ureidomethyl]-2-methyl-phenoxy}-pyridine-2-carboxylic acid methylamide]: the 50% inhibitory concentration (IC50) stood at 17600 nM.

Regarding `CNC(=O)c1cc(Oc2ccc(C(C)NC(=O)Nc3ccc(Cl)c(Cl)c3)cc2)ccn1` (stereo not shown) [compound 71, 4-(4-{1-[3-(3,4-Dichloro-phenyl)-ureido]-ethyl}-phenoxy)-pyridine-2-carboxylic acid methylamide], the IC50 was found to be 1800 nM.

On to `CNC(=O)c1cc(Oc2ccc(CNC(=O)Nc3cc(C(F)(F)F)ccc3-n3ccnn3)cc2C)ccn1` [compound 203, 4-{2-Methyl-4-[3-(2-[1,2,3]triazol-1-yl-5-trifluoromethyl-phenyl)-ureidomethyl]-phenoxy}-pyridine-2-carboxylic acid methylamide], for which the concentration for half-maximal inhibition (IC50) stood at 19 nM.

In the case of `CNC(=O)c1cc(Oc2ccc(CNC(=O)Nc3cc(C)c(Cl)cc3N(C)CCN(C)C)cc2C)ccn1` [compound 164, 4-[4-(3-{4-Chloro-2-[(2-dimethylamino-ethyl)-methyl-amino]-5-methyl-phenyl}-ureidomethyl)-2-methyl-phenoxy]-pyridine-2-carboxylic acid methylamide], the half-maximal inhibitory concentration (IC50) amounted to 300 nM.

On to `CNC(=O)c1cc(Oc2ccc(CNC(=O)Nc3cc(C(F)(F)F)ccc3-n3ccnc3)cc2)ccn1` [compound 243, 4-{4-[3-(2-Imidazol-1-yl-5-trifluoromethyl-phenyl)-ureidomethyl]-phenoxy}-pyridine-2-carboxylic acid methylamide], for which the concentration for half-maximal inhibition (IC50) is 9400 nM.

Consider `CNC(=O)c1cc(Oc2ccc(CNC(=O)Nc3cc(C)on3)cc2)ccn1` [compound 236, 4-{4-[3-(5-Methyl-isoxazol-3-yl)-ureidomethyl]-phenoxy}-pyridine-2-carboxylic acid methylamide], for which the concentration for half-maximal inhibition (IC50) was 2050 nM.

Regarding `CNC(=O)c1cc(Oc2ccc(CNC(=O)Nc3cc(C(F)(F)F)ccc3CN)cc2C)ccn1` [compound 221, 4-{4-[3-(2-Aminomethyl-5-trifluoromethyl-phenyl)-ureidomethyl]-2-methyl-phenoxy}-pyridine-2-carboxylic acid methylamide], the IC50 was determined as 180 nM.

Take `CNC(=O)c1cc(Oc2ccc(CNC(=O)Nc3ccc(C)c(Cl)c3)cc2F)ccn1` [compound 234, 4-{4-[3-(3-Chloro-4-methyl-phenyl)-ureidomethyl]-2-fluoro-phenoxy}-pyridine-2-carboxylic acid methylamide]: the IC50 was found to be 72 nM.

Consider `CNC(=O)c1cc(Oc2ccc(CNC(=O)Nc3cccc(C(F)(F)F)c3)cc2F)ccn1` [compound 233, 4-{2-Fluoro-4-[3-(3-trifluoromethyl-phenyl)-ureidomethyl]-phenoxy}-pyridine-2-carboxylic acid methylamide], for which the half-maximal inhibitory concentration (IC50) is 27 nM.

Turning to `CNC(=O)c1cc(Oc2ccc(CNC(=O)Nc3cc(C(F)(F)F)ccc3-n3ccnn3)cc2)ccn1` [compound 206, 4-{4-[3-(2-[1,2,3]Triazol-1-yl-5-trifluoromethyl-phenyl)-ureidomethyl]-phenoxy}-pyridine-2-carboxylic acid methylamide], the 50% inhibitory concentration (IC50) is 31 nM.

`CNC(=O)c1cc(Oc2ccc(CNC(=O)Nc3cc(C(F)(F)F)ccc3CNC(C)=O)cc2C)ccn1` [compound 214, 4-(4-{3-[2-(Acetylamino-methyl)-5-trifluoromethyl-phenyl]-ureidomethyl}-2-methyl-phenoxy)-pyridine-2-carboxylic acid methylamide]: the 50% inhibitory concentration (IC50) worked out at 45 nM.

Turning to `CNC(=O)c1cc(Oc2ccc(CNC(=O)Nc3cc(OC)c(OC)c(OC)c3)cc2)ccn1` [compound 80, 4-{4-[3-(3,4,5-Trimethoxy-phenyl)-ureidomethyl]-phenoxy}-pyridine-2-carboxylic acid methylamide], the IC50 came to 750 nM.

As for `CNC(=O)c1cc(Oc2ccc(CNC(=O)Nc3ccc(NC(C)=O)c(C(F)(F)F)c3)cc2)ccn1` [compound 241, 4-{4-[3-(4-Acetylamino-3-trifluoromethyl-phenyl)-ureidomethyl]-phenoxy}-pyridine-2-carboxylic acid methylamide], the IC50 stood at 710 nM.
